Assay results as given in patent US7109380B2, “Cyclopentenedione antifungal compounds and methods for their use” (The University of Mississippi, priority 2004, dated 2006).
≈ marks a conversion by molar mass, not a printed value. Read-outs that look alike come from different tables or passages of the source.

How the values were obtained:
Type in all cases: cell-based
Phomopsis obscurans = assay: 96-well microtiter fungal growth assay
Phomopsis viticola = assay: 96-well microtiter fungal growth assay;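 for Mean percent fungal growth inhibition of Phomopsis viticola: percent relative to untreated positive growth controls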
Method in brief: (§1)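 Conidial suspensions adjusted to 1.0×10^6 conidia/mL challenged with compounds at final 0.3, 3.0 and 30.0 μM, duplicate per dose, repeated twice. Incubated at 24±1 °C with 12 h photoperiod; growth measured as absorbance at 620 nm at 48 and 72 h (120 h for Phomopsis). Means compared by ANOVA and Fisher's protected LSD.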

[1] = test system: Candida albicans ATCC 90028; assay: In vitro antifungal susceptibility testing (modified NCCLS method), media pH 7.3
[2] = test system: Cryptococcus neoformans ATCC 90113; assay: In vitro antifungal susceptibility testing (modified NCCLS method); conditions: for MFC / MIC: ATCC90113
Fusarium oxysporum = assay: 96-well microtiter fungal growth assay;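 for Mean percent fungal growth inhibition of Fusarium oxysporum: percent relative to untreated positive growth controls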
Method in brief: as §1

Colletotrichum acutatum = assay: 96-well microtiter fungal growth assay;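 for Mean percent fungal growth inhibition of Colletotrichum acutatum: percent relative to untreated positive growth controls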
Method in brief: as §1

Botrytis cinerea = assay: 96-well microtiter fungal growth assay;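 for Mean percent fungal growth inhibition of Botrytis cinerea: percent relative to untreated positive growth controls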
Colletotrichum fragariae = assay: 96-well microtiter fungal growth assay;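 for Mean percent fungal growth inhibition of Colletotrichum fragariae: percent relative to untreated positive growth controls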
Method in brief: as §1

[3] = test system: Colletotrichum gloeosporioides; assay: 96-well microtiter fungal growth assay;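 for Mean percent fungal growth inhibition of Colletotrichum gloeosporoides: percent relative to untreated positive growth controls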
Method in brief: as §1

COC(/C=C/c1ccccc1)=C1\C(=O)C=C(C)C1=O [Compound 1, coruscanone A]
Percent change in fungal growth vs control (negative = inhibition) (Phomopsis obscurans; 0.3 μm, 120 hrs): 3.3 ± 19.9% | Percent change in fungal growth vs control (negative = inhibition) (Phomopsis obscurans; 0.3 μm, 144 hrs): 33.3 ± 41.6% | Percent change in fungal growth vs control (negative = inhibition) (Phomopsis obscurans; 3.0 μm, 120 hrs): −37.4 ± 25.0% | Percent change in fungal growth vs control (negative = inhibition) (Phomopsis obscurans; 3.0 μm, 144 hrs): −13.3 ± 36.0% | Percent change in fungal growth vs control (negative = inhibition) (Phomopsis obscurans; 30 μm, 120 hrs): −88.5 ± 3.4% | Percent change in fungal growth vs control (negative = inhibition) (Phomopsis obscurans; 30 μm, 144 hrs): −96.9 ± 1.2% | IC50 (Phomopsis obscurans; Paraphomopsis obscurans, Phomopis obscurans, at 120 hr, read-out: IC50 (growth inhibition)): < 3.1 µM | Mean percent fungal growth inhibition of Phomopsis viticola (Phomopsis viticola; 0.3 μm, 120 hrs): 7.4 ± 124.1% | Mean percent fungal growth inhibition of Phomopsis viticola (Phomopsis viticola; 0.3 μm, 144 hrs): 423.2 ± 185.3% | Mean percent fungal growth inhibition of Phomopsis viticola (Phomopsis viticola; 3.0 μm, 120 hrs): −71.1 ± 50.9% | Mean percent fungal growth inhibition of Phomopsis viticola (Phomopsis viticola; 3.0 μm, 144 hrs): −71.3 ± 15.7% | Mean percent fungal growth inhibition of Phomopsis viticola (Phomopsis viticola; 30 μm, 120 hrs): −61.8 ± 86.8% | Mean percent fungal growth inhibition of Phomopsis viticola (Phomopsis viticola; 30 μm, 144 hrs): −79.1 ± 13.3% | IC50 (Phomopsis viticola; Diaporthe ampelina, 72 h, read-out: IC50 (growth inhibition)): < 1550 nM | Antifungal activity against C. albicans (in words) [1]: potent activity | MFC ([1]; ATCC90028, Candida albicans ATCC 90028, Table 1, read-out: MFC (Minimum Fungicidal Concentration)): 1.56 µg/mL (≈ 6.13 µM) | MIC ([1]; ATCC90028, Candida albicans ATCC 90028, Table 1, read-out: MIC (Minimum Inhibitory Concentration)): 0.78 µg/mL (≈ 3.07 µM) | Antifungal activity against C. albicans (in words) ([1]; listed as coruscanone A): comparable to or stronger than those of positive control drugs | MFC ([2]; Cryptococcus neoformans ATCC 90113, Table 1, read-out: MFC (Minimum Fungicidal Concentration)): 6.25 µg/mL (≈ 24.6 µM) | MIC ([2]; Cryptococcus neoformans ATCC 90113, Table 1, read-out: MIC (Minimum Inhibitory Concentration)): 6.25 µg/mL (≈ 24.6 µM) | IC50 ([2]; Cryptococcus neoformans, ATCC90113, read-out: IC50 (50% inhibitory concentration)): 1.5 µg/mL (≈ 5.9 µM) | MFC ([2]; Cryptococcus neoformans, Cr. neoformans ATCC 90113, Table 3, read-out: MFC): 2.5 µg/mL (≈ 9.83 µM) | MIC ([2]; Cryptococcus neoformans, Cr. neoformans ATCC 90113, Table 3, read-out: MIC): 2.5 µg/mL (≈ 9.83 µM) | Mean percent fungal growth inhibition of Fusarium oxysporum (Fusarium oxysporum; 0.3 μm, 48 hrs): 2.4 ± 4.7% | Mean percent fungal growth inhibition of Fusarium oxysporum (Fusarium oxysporum; 0.3 μm, 72 hrs): 12.2 ± 2.1% | Mean percent fungal growth inhibition of Fusarium oxysporum (Fusarium oxysporum; 3.0 μm, 48 hrs): −76.9 ± 1.6% | Mean percent fungal growth inhibition of Fusarium oxysporum (Fusarium oxysporum; 3.0 μm, 72 hrs): −24.2 ± 3.3% | Mean percent fungal growth inhibition of Fusarium oxysporum (Fusarium oxysporum; 30 μm, 48 hrs): −99.3 ± 0.2% | Mean percent fungal growth inhibition of Fusarium oxysporum (Fusarium oxysporum; 30 μm, 72 hrs): −98.9 ± 0.2% | IC50 (Fusarium oxysporum; Fusarium oxysporum, F. oxysporum, 96-well microbioassay, read-out: IC50 (growth inhibition)): < 12.5 µM | Mean percent fungal growth inhibition of Colletotrichum acutatum (Colletotrichum acutatum; 0.3 μm, 48 hrs): 49.7 ± 6.6% | Mean percent fungal growth inhibition of Colletotrichum acutatum (Colletotrichum acutatum; 0.3 μm, 72 hrs): 38.0 ± 3.0% | Mean percent fungal growth inhibition of Colletotrichum acutatum (Colletotrichum acutatum; 3.0 μm, 48 hrs): −73.1 ± 4.9% | Mean percent fungal growth inhibition of Colletotrichum acutatum (Colletotrichum acutatum; 3.0 μm, 72 hrs): −21.8 ± 4.4% | Mean percent fungal growth inhibition of Colletotrichum acutatum (Colletotrichum acutatum; 30 μm, 48 hrs): −95.8 ± 1.9% | Mean percent fungal growth inhibition of Colletotrichum acutatum (Colletotrichum acutatum; 30 μm, 72 hrs): −97.6 ± 0.8% | IC50 (Colletotrichum acutatum; Colletotrichum acutatum, C. acutatum, 96-well microbioassay, read-out: IC50 (growth inhibition)): < 3.1 µM | Mean percent fungal growth inhibition of Botrytis cinerea (Botrytis cinerea; 0.3 μm, 48 hrs): −7.3 ± 12.8% | Mean percent fungal growth inhibition of Botrytis cinerea (Botrytis cinerea; 0.3 μm, 72 hrs): 28.1 ± 8.3% | Mean percent fungal growth inhibition of Botrytis cinerea (Botrytis cinerea; 3.0 μm, 48 hrs): −45.2 ± 16.4% | Mean percent fungal growth inhibition of Botrytis cinerea (Botrytis cinerea; 3.0 μm, 72 hrs): −15.7 ± 10.6% | Mean percent fungal growth inhibition of Botrytis cinerea (Botrytis cinerea; 30 μm, 48 hrs): −69.6 ± 9.8% | Mean percent fungal growth inhibition of Botrytis cinerea (Botrytis cinerea; 30 μm, 72 hrs): −88.4 ± 5.6% | IC50 (Botrytis cinerea; Botrytis cinerea, 48 h, read-out: IC50 (growth inhibition)): < 1550 nM | Mean percent fungal growth inhibition of Colletotrichum fragariae (Colletotrichum fragariae; 0.3 μm, 48 hrs): −14.1 ± 10.8% | Mean percent fungal growth inhibition of Colletotrichum fragariae (Colletotrichum fragariae; 0.3 μm, 72 hrs): −4.8 ± 5.0% | Mean percent fungal growth inhibition of Colletotrichum fragariae (Colletotrichum fragariae; 3.0 μm, 48 hrs): −94.0 ± 1.9% | Mean percent fungal growth inhibition of Colletotrichum fragariae (Colletotrichum fragariae; 3.0 μm, 72 hrs): −54.6 ± 18.7% | Mean percent fungal growth inhibition of Colletotrichum fragariae (Colletotrichum fragariae; 30 μm, 48 hrs): −96.9 ± 1.9% | Mean percent fungal growth inhibition of Colletotrichum fragariae (Colletotrichum fragariae; 30 μm, 72 hrs): −67.4 ± 18.3% | IC50 (Colletotrichum fragariae; Colletotrichum fragariae, C. fragariae, 96-well microbioassay, read-out: IC50 (growth inhibition)): < 3.1 µM | Mean percent fungal growth inhibition of Colletotrichum gloeosporoides ([3]; 0.3 μm, 48 hrs): 37.7 ± 9.0% | Mean percent fungal growth inhibition of Colletotrichum gloeosporoides ([3]; 0.3 μm, 72 hrs): 46.7 ± 3.9% | Mean percent fungal growth inhibition of Colletotrichum gloeosporoides ([3]; 3.0 μm, 48 hrs): −79.9 ± 2.8% | Mean percent fungal growth inhibition of Colletotrichum gloeosporoides ([3]; 3.0 μm, 72 hrs): −13.8 ± 3.7% | Mean percent fungal growth inhibition of Colletotrichum gloeosporoides ([3]; 30 μm, 48 hrs): −95.2 ± 2.2% | Mean percent fungal growth inhibition of Colletotrichum gloeosporoides ([3]; 30 μm, 72 hrs): −94.4 ± 1.6% | IC50 ([3]; Colletotrichum gloeosporioides, C. gleoesporioides, 96-well microbioassay, read-out: IC50 (growth inhibition)): < 3.1 µM
